Entries after “also recorded” stand apart in the source; their conditions may differ.
Key:
[1] = test system: SGC-7901, A875, HepG2 and MARC145 cell lines; assay: MTT in vitro cytotoxicity assay, statements over the whole cell panel; assay type: cell-based; details: for cytotoxic effect / inhibition activity in words: IC50-based judgement, compared with 5-FU; for inhibition activity in preliminary screening, in words: at 100 µM, inhibition rate higher than control 5-FU
Procedure: (§1) The lead molecules A2 and all newly prepared diarylamine derivatives B1-13 and C1-11 were evaluated for their in vitro cytotoxic effects against SGC-7901, A875, HepG2 and MARC145 cell lines by the classical MTT [3-(4,5-dimethylthiazol-2-yl)-2,5-diphenyl tetrazolium bromide] assay ([Alley et al., 1988]; [Ke et al., 2012]; [Shi et al., 2012]; [Yu et al., 2015]; [Ke et al., 2019]; [Xu et al., 2019]; [Huang et al., 2021]) using 5-FU (5-Fluorouracil) as a control.
(§2) The cytotoxicity of target compounds was determined with MTT assay ([Alley et al., 1988]; [Ke et al., 2012]; [Shi et al., 2012]; [Yu et al., 2015]; [Ke et al., 2019]; [Xu et al., 2019]; [Huang et al., 2021]). SGC-7901, A875, HepG2 and MARC145 cell lines were obtained from Hubei Biopesticide Engineering Research Centre. All data of the experiment were analyzed with SPSS software, and all assay were performed in triplicate on three independent experiments, and measurement data were expressed as the mean ± S.D.
(§3) The in vitro cytotoxicity of the synthesized compounds against different cell lines (SGC-7901, A875, HepG2 and MARC145) was measured with MTT assay. All the data of the experiment were analyzed with SPSS software, and the 50% inhibitory concentrations (IC50) of each compound for the different cell lines were determined. A control was run for each test, and all assays were performed in triplicate on three independent experiments, and measurement data were expressed as the mean ± S.D.

AKT3 = AKT3 (Homo sapiens, UniProt Q9Y243); assay: ADP-GLO kinase inhibitory assay, AKT3; assay type: biochemical
Procedure: (§4) Based on the aforementioned results for the potential mechanism of action, the kinase inhibitory profile of compounds C6 and C11 were screened at two dose concentration of 10 and 1 µM over a panel of 15 kinases, and the kinase inhibitory activities are listed in supporting information (Supplementary Table S1).
(§5) The kinase inhibitory profile of compounds C6 and C11 were screened at two dose concentration of 10 and 1 µM over a panel of 15 kinases, and each assay was repeated twice. All the inhibitory assays were carried out through kinase profiling services provided by HY Biotech (Chinese), in which ADP-GLO kinase assays were used.
as §5, with “10 µM” for “10”

AKT1 = AKT1 (Homo sapiens, UniProt P31749); assay: ADP-GLO kinase inhibitory assay, AKT1; assay type: biochemical
Procedure: as §4, §5
as §5, with “10 µM” for “10”

ERK1 = ERK1 (Homo sapiens, UniProt P27361); assay: ADP-GLO kinase inhibitory assay, ERK1; assay type: biochemical
Procedure: as §4, §5
as §5, with “10 µM” for “10”

AURORA = assay: ADP-GLO kinase inhibitory assay, AURORA; assay type: biochemical
Procedure: as §4, §5
as §5, with “10 µM” for “10”

CDK1/A2 = CDK1/A2 (Homo sapiens, UniProt P06493); assay: ADP-GLO kinase inhibitory assay, CDK1/A2; assay type: biochemical
Procedure: as §4, §5
as §5, with “10 µM” for “10”

[2] = test system: A875 (human melanoma cell line); assay: MTT in vitro cytotoxicity assay, A875; assay type: cell-based; details: for IC50: A875, Table 3, MTT, mean ± S.D.; for inhibition at 100 µM: A875, at 100 µM, read-out: Cell growth inhibition (%) A875
Procedure: as §1, §2, §3

RIPK3 = RIPK3 (Homo sapiens, UniProt Q9Y572); assay: ADP-GLO kinase inhibitory assay, RIPK3; assay type: biochemical
Procedure: as §4, §5
as §5, with “10 µM” for “10”

[3] = test system: MARC145 (subclone of African green monkey kidney cell line MA-104); assay: MTT in vitro cytotoxicity assay, MARC145; assay type: cell-based; details: at 100 µM; for inhibition at 100 µM: Chlorocebus sabaeus, MARC145, read-out: Cell growth inhibition (%) MARC145
Procedure: as §1, §2, §3

[4] = MTT in vitro cytotoxicity assay, MARC145; assay type: cell-based, African green monkey; details: African green monkey, MARC145 cells (kidney cell line, subclone of MA-104), Table 3; MTT; mean ± S.D.
Procedure: as §1, §2, §3

PDK1 = molecular target: T1, PDK1 (Homo sapiens, UniProt O15530); assay: ADP-GLO kinase inhibitory assay, PDK1; assay type: biochemical
T1 sequence (O15530 1-556): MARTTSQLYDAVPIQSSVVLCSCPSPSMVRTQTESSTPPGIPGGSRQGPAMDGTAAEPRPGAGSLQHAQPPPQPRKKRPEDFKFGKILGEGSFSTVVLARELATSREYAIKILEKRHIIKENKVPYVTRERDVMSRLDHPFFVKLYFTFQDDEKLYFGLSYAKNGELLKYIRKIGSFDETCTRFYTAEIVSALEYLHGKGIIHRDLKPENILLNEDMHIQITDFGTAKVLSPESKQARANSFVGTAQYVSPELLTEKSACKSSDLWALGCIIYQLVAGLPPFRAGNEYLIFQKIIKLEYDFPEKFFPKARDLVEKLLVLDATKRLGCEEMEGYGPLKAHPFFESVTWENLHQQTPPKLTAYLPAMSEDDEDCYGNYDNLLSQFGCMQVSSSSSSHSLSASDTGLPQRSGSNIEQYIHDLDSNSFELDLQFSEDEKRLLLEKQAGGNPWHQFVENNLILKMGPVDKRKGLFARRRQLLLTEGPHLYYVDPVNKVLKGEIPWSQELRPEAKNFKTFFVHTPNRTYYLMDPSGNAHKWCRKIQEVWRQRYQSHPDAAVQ
Procedure: as §4, §5
as §5, with “10 µM” for “10”

[5] = test system: SGC-7901 (human gastric cancer cell line); assay: MTT in vitro cytotoxicity assay, SGC-7901; assay type: cell-based; details: for IC50: SGC-7901, Table 3, MTT, mean ± S.D.; for inhibition at 100 µM: SGC-7901, at 100 µM, read-out: Cell growth inhibition (%) SGC-7901
Procedure: as §1, §2, §3

PLK1 = PLK1 (Homo sapiens, UniProt P53350); assay: ADP-GLO kinase inhibitory assay, PLK1; assay type: biochemical
Procedure: as §4, §5
as §5, with “10 µM” for “10”

CAMK2 alpha = CAMK2 alpha (Homo sapiens, UniProt Q9UQM7); assay: ADP-GLO kinase inhibitory assay, CAMK2 alpha; assay type: biochemical
Procedure: as §4, §5
as §5, with “10 µM” for “10”

Sequence of ERK1 (P27361 whole entry, species assumed): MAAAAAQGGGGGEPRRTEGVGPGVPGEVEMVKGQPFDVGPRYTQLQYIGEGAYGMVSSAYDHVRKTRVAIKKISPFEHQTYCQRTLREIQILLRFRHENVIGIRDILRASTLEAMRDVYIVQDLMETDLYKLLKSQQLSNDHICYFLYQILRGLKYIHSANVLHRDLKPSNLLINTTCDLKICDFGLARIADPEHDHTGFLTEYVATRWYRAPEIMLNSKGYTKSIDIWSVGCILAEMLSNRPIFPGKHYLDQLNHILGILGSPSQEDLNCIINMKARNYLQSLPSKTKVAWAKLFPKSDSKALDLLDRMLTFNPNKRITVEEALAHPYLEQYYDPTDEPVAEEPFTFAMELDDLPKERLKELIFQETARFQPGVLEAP
Sequence of AKT3 (Q9Y243 whole entry, species assumed): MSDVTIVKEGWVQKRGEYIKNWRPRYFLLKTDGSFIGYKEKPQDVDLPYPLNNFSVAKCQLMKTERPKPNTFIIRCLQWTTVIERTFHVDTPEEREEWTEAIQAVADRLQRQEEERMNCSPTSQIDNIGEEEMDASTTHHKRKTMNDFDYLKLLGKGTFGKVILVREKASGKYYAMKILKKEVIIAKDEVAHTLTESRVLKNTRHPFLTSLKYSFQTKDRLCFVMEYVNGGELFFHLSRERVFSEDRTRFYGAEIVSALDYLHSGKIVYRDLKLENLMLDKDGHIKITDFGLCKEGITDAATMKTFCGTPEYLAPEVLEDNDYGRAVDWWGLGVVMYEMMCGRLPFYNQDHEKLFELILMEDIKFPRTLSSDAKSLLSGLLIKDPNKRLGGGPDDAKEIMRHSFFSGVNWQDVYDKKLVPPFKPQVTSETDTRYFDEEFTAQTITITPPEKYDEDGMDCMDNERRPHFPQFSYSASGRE
Sequence of AKT1 (P31749 whole entry, species assumed): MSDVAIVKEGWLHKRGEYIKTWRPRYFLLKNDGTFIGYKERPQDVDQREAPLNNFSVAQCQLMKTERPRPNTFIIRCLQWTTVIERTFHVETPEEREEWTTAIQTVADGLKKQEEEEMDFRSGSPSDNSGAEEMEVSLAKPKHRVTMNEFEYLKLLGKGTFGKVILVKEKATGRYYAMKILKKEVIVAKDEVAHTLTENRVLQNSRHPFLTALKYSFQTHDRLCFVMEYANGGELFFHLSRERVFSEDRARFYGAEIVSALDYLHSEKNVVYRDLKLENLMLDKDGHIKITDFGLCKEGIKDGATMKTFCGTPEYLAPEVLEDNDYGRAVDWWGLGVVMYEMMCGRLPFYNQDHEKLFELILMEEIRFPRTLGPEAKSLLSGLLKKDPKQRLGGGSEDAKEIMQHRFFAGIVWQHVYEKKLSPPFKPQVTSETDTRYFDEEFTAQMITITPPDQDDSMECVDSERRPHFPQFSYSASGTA
Sequence of PLK1 (P53350 whole entry, species assumed): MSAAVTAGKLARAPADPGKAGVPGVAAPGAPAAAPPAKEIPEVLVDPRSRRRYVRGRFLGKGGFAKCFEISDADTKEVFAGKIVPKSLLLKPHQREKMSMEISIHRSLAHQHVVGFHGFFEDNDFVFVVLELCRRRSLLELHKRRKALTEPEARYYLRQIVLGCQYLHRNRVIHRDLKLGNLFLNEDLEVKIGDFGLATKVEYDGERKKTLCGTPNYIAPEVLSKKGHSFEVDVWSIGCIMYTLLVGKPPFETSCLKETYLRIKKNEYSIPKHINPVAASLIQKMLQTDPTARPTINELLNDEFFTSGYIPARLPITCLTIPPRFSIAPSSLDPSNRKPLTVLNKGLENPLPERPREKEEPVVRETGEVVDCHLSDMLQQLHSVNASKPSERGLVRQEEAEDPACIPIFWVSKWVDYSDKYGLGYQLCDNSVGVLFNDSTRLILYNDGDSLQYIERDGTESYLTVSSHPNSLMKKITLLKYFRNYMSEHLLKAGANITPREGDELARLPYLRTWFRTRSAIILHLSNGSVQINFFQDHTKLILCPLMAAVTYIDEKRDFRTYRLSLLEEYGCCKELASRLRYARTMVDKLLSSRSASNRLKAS
Sequence of CAMK2 alpha (Q9UQM7 whole entry): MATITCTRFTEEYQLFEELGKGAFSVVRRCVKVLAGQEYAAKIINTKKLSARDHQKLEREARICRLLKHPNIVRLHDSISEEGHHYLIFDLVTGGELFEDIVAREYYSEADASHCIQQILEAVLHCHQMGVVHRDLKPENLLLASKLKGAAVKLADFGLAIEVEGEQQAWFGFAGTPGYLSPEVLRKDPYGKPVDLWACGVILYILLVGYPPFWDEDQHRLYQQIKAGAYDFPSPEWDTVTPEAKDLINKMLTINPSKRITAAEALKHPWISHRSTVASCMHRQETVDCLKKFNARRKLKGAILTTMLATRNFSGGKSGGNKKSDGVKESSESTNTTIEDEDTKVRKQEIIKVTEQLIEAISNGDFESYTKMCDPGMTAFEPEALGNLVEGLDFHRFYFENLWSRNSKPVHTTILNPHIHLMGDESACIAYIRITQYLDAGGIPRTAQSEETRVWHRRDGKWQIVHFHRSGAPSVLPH
Sequence of CDK1/A2 (P06493 whole entry, species assumed): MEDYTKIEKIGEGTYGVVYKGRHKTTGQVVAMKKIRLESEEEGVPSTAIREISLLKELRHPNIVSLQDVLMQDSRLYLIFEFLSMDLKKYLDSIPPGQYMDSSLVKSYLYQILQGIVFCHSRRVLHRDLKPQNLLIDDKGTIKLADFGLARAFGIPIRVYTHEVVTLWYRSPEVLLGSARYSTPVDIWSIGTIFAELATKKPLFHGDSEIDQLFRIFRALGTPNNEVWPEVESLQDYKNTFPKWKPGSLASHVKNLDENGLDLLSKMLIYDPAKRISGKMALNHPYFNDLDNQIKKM
Sequence of CDK1/A2 (P20248 whole entry partner, species assumed): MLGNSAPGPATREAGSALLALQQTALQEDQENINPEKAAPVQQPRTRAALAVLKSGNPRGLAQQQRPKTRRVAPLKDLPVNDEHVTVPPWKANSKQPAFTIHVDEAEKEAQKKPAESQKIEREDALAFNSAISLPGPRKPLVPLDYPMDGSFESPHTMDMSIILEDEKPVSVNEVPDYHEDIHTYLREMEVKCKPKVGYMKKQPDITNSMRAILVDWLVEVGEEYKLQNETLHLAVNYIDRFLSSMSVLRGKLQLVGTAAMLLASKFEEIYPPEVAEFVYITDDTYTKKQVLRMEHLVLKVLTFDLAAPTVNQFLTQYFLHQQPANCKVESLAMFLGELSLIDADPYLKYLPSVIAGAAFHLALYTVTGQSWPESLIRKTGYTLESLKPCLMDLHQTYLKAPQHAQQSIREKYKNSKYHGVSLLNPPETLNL
Sequence of RIPK3 (Q9Y572 whole entry, species assumed): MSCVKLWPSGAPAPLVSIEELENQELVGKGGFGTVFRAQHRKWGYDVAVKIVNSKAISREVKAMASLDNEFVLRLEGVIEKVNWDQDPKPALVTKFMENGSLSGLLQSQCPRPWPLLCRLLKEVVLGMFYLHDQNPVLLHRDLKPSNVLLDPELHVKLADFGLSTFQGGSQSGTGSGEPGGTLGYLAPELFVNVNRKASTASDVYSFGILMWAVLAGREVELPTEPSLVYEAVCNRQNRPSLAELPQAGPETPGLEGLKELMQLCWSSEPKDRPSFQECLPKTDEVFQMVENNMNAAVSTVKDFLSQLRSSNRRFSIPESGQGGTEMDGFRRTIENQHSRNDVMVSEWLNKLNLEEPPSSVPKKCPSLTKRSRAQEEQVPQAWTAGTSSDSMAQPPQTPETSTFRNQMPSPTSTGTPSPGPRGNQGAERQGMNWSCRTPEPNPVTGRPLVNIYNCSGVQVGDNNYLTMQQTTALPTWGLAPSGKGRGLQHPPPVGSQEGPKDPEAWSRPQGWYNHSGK

inhibition at 1 µM (AKT3)	inhibition at 10 µM (AKT3)	inhibition at 1 µM (AKT1)	inhibition at 10 µM (AKT1)	inhibition at 1 µM (ERK1)	inhibition at 10 µM (ERK1)	Inhibition activity (%) AURORA (AURORA; 1 µM)	Inhibition activity (%) AURORA (AURORA; 10 µM)	inhibition at 1 µM (CDK1/A2)	inhibition at 10 µM (CDK1/A2)	inhibition at 1 µM (RIPK3)	inhibition at 10 µM (RIPK3)	inhibition at 1 µM (PDK1)	SMILES	cytotoxic effect / inhibition activity in words [1]	dose-response analysis of cell growth inhibition, in words ([1]; SGC-7901, A875, HepG2, MARC145)	inhibition activity in preliminary screening, in words [1]	IC50 [2]	inhibition at 100 µM [2]	inhibition at 100 µM [3]	IC50 [4]	further results
16.1%	-2.65%	10.4%	-6.77%	6.76%	-6.1%	4.35%	7.74%	1.55%	-3.82%	-1.37%	16.8%	10.3%	O=C(Nc1cccc(C(F)(F)F)c1)c1cccnc1Nc1cccc(C(F)(F)F)c1 [C6, N-(3-(Trifluoromethyl)phenyl)-2-((3-(trifluoromethyl)phenyl)amino)nicotinamide]	good cytotoxic effect; also recorded: higher inhibition activities compared to the control 5-FU	significant concentration dependence	good inhibition activity	12.8 ± 1.99 µM	91.5 ± 2.9%	89.8 ± 3.4%	9.72 ± 2.75 µM	IC50 ([1]; SGC-7901, A875, HepG2, MARC145, read-out: IC50 values, span over the tested cell lines): 5.53 to 12.8 µM; inhibition at 10 µM (PDK1): 10.1%; IC50 [5]: 5.53 ± 0.82 µM; inhibition at 100 µM [5]: 90.5 ± 3.8%; inhibition at 1 µM (PLK1): 5.21%; inhibition at 10 µM (PLK1): -0.95%; inhibition at 1 µM (CAMK2 alpha): 5.12%; inhibition at 10 µM (CAMK2 alpha): 37.8%
20.1%	-0.49%	13.3%	-5.21%	18.2%	3.07%	9.65%	12.58%	38.2%	-7.23%	2.34%	10.4%	20.3%	O=C(Nc1ccc(Cl)nc1)c1cccnc1Nc1cccc(C(F)(F)F)c1 [C11, N-(6-Chloropyridin-3-yl)-2-((3-(trifluoromethyl)phenyl)amino)nicotinamide]	good cytotoxic effect; also recorded: higher inhibition activities compared to the control 5-FU	significant concentration dependence	good inhibition activity	12.3 ± 4.16 µM	90.5 ± 3.7%	27.1 ± 3.6%	> 102 µM	inhibition of CDK1/A2, in words (CDK1/A2; at 1 μM): some inhibitions; inhibition on normal cell lines (MARC145), in words [3]: low inhibition; inhibition at 10 µM (PDK1): 10.9%; IC50 [5]: 9.13 ± 3.52 µM; inhibition at 100 µM [5]: 85.6 ± 4.3%; inhibition at 1 µM (PLK1): 7.32%; inhibition at 10 µM (PLK1): 2.02%; inhibition at 1 µM (CAMK2 alpha): 5.65%; inhibition at 10 µM (CAMK2 alpha): -1.53%

Reference: paper PMC9315260, “Diarylamine-Guided Carboxamide Derivatives: Synthesis, Biological Evaluation, and Potential Mechanism of Action” (Frontiers in Chemistry, 2022)
